Test system: Plasmopara viticola
Assay: activity against peronospora of grapevines caused by Plasmopara viticola (protective spray test on potted vines)
Assay type: in vivo, Plasmopara viticola on vines of the cultivar "Riesling"
Conditions: individual active compound, untreated control 92% infection
Method: The active compounds, separately or jointly, were prepared as a stock solution comprising 0.25% by weight of active compound in acetone or DMSO. 1% by weight of the emulsifier Uniperol® EL (wetting agent having emulsifying and dispersant action based on ethoxylated alkylphenols) was added to this solution, and the mixture was diluted with water to the desired concentration.
Use example—activity against peronospora of grapevines caused by Plasmopara viticola Leaves of potted vines of the cultivar “Riesling” were sprayed to runoff point with an aqueous suspension having the concentration of active compound stated below. The next day, the undersides of the leaves were inoculated with an aqueous zoospore suspension of Plasmopara viticola. The grapevines were then initially placed in a water-vapor-saturated chamber at 24° C. for 48 hours and then in a greenhouse at 20-30° C. for 5 days. After this period of time, the plants were again placed in a humid chamber for 16 hours to promote sporangiophore eruption. The extent of the development of the disease on the undersides of the leaves was then determined visually.
The visually determined percentages of infected leaf areas were converted into efficacies in % of the untreated control:
The efficacy (E) is calculated as follows using Abbot's formula: E=(1−[…] )·100 α corresponds to the fungicidal infection of the treated plants in % and β corresponds to the fungicidal infection of the untreated (control) plants in % An efficacy of 0 means that the infection level of the treated plants corresponds to that of the untreated control plants; an efficacy of 100 means that the treated plants were not infected.
The expected efficacies of mixtures of active compounds were determined using Colby's formula (Colby, S. R. “Calculating synergistic and antagonistic responses of herbicide combinations”, Weeds, 15, 20-22, 1967) and compared with the observed efficacies.
Colby's formula: E=x+y−x·y/100
E expected efficacy, expressed in % of the untreated control, when using the mixture of the active compounds A and B at the concentrations a and b x efficacy, expressed in % of the untreated control, when using the active compound A at the concentration a y efficacy, expressed in % of the untreated control, when using the active compound B at the concentration b

For `CC1CCN(c2c(-c3c(F)cc(F)cc3F)c(Cl)nc3ncnn23)CC1` [compound I, 5-chloro-7-(4-methylpiperidin-1-yl)-6-(2,4,6-trifluorophenyl)-[1,2,4]triazolo[1,5-a]pyrimidine], the “Efficacy in % of the untreated control” value (16 ppm in the spray liquor) was 56%.
For `OC(c1ccc(Cl)cc1)(c1cncnc1)c1ccccc1Cl` (stereo not shown) [compound II, (4-chlorophenyl)(2-chlorophenyl)pyrimidin-5-ylmethanol], the “Efficacy in % of the untreated control” value (4 ppm in the spray liquor) was 2%, the “Efficacy in % of the untreated control” value (16 ppm in the spray liquor) was 2% and the “Efficacy in % of the untreated control” value (63 ppm in the spray liquor) was 2%.

From patent US20070161652A1, “Fungicidal mixtures” (BASF Aktiengesellschaft, priority 2004, published 2007)
